Experimental data taken from the NIST ThermoML archive (doi:10.1021/je200921u).
± gives the expanded uncertainty stated by the source.

Conditions: Liquid, Ebulliometric method (Recirculating still)

CCO [ethanol]
vapor or sublimation pressure (351.35 K): 101.3 ± 2.6 kPa | vapor or sublimation pressure (356.11 K): 121.3 ± 3.1 kPa | vapor or sublimation pressure (363.55 K): 161.3 ± 4.1 kPa | vapor or sublimation pressure (369.55 K): 201.3 ± 5.1 kPa

CC(C)O [propan-2-ol]
vapor or sublimation pressure (355.35 K): 101.3 ± 2.6 kPa | vapor or sublimation pressure (359.95 K): 121.3 ± 3.1 kPa | vapor or sublimation pressure (367.65 K): 161.3 ± 4.1 kPa | vapor or sublimation pressure (373.65 K): 201.3 ± 5.1 kPa

Cc1ccccc1 [toluene]
vapor or sublimation pressure (383.55 K): 101.3 ± 2.7 kPa | vapor or sublimation pressure (390.25 K): 121.3 ± 3.2 kPa | vapor or sublimation pressure (390.26 K): 121.3 ± 3.2 kPa | vapor or sublimation pressure (400.75 K): 161.3 ± 4.3 kPa | vapor or sublimation pressure (409.65 K): 201.3 ± 5.3 kPa
